Values quoted from earlier work, collected in US20250283018A1, “TOILET RIM BLOCKS WITH SCENT CHANGE” (SYMRISE AG, priority 2021, published 2025).
Like-named read-outs stand apart in the source and are kept apart here.

Assays:
[1] = not given; remark: listed apart in the source
[2] = Table 3, components of POWER PLATIN

| Compound | Bp. [° C.] (list of selected fragrances) | logP ([1]; list of selected fragrances) | Bp. [° C.] (Table 1, components of MARINA) | logP ([1]; Table 1, components of MARINA) | other results |
| --- | --- | --- | --- | --- | --- |
| CC/C=C/CCOC(=O)c1ccccc1O [HEXENYLSALICYLAT CIS-3] | 301 °C | 4.5 |  |  |  |
| CCCCCCCCC1CCC(=O)O1 (stereo not drawn) [DODECALACTON GAMMA] |  |  |  |  | Bp. [° C.] (Table 2, components of PEACH): 291 °C; logP ([1]; Table 2, components of PEACH): 3.55 |
| ISOBUTYLMENTHONE |  |  | 211 °C | 2.94 |  |
| CC1CCC(C(C)(C)S)C(=O)C1 (stereo not drawn) [THIOMENTHANON-8,3] |  |  |  |  | Bp. [° C.] (Table 2, components of PEACH): 271 °C; logP ([1]; Table 2, components of PEACH): 2.78 |
| COC(=O)c1ccccc1N [[…]] | 256 °C | 2.12 | 256 °C |  | Bp. [° C.] [2]: 256 °C |
| O=Cc1ccc2c(c1)OCO2 [HELIOTROPIN/PIPERONAL] | 263 °C | 1.35 |  |  |  |
| CCCCCCCCCC=O [ALDEHYD C10] |  |  | 208.5 °C | 3.76 | Bp. [° C.] (Table 2, components of PEACH): 208.5 °C; Bp. [° C.] [2]: 208.5 °C; logP ([1]; Table 2, components of PEACH): 3.76; logP [1, 2]: 3.76 |
| CC1=CCC(C=CC(C)C(C)O)C1(C)C (stereo in doubt) [EBANOL] |  |  |  |  | Bp. [° C.] [2]: 274 °C; logP [1, 2]: 4.93 |
| Cc1ccc2c(c1)OC(=O)C2C (stereo not drawn) [FURAMINTON/TONKALACTONE ™] |  |  |  |  | Bp. [° C.] (Table 2, components of PEACH): 284 °C; logP ([1]; Table 2, components of PEACH): 1.44 |
| C=CC(C)CCCC(C)(C)O (stereo not drawn) [DIHYDROMYRCENOL] |  |  | 194 °C | 3.47 | Bp. [° C.] [2]: 194 °C; logP [1, 2]: 3.47 |
| COC(OC)C(C)(C)CC=C(C)C [AMAROCIT ®] |  |  |  |  | Bp. [° C.] [2]: 203 °C; logP [1, 2]: 3.39 |
| Cc1ccc2c(c1)OCC(=O)CO2 [METHYLBENZODIOXEPINON] | 289 °C | 1.8 |  |  |  |
| CCCCCCC1CCC(=O)O1 (stereo not drawn) [GAMA DECALACTONE] | 266 °C | 2.36 |  |  | Bp. [° C.] (Table 2, components of PEACH): 266 °C; logP ([1]; Table 2, components of PEACH): 2.57 |
| CCCCCCCCCCC=O [ALDEHYD C11 UNDECANAL] |  |  | 223 °C | 4.25 |  |
| COC1CC2CC1C1CC(C=O)CC21 (stereo not drawn) [SCENTENAL] |  |  | 273 °C | 2.03 |  |
| CCCCCCCC=O [ALDEHYD C 8] |  |  | 171 °C | 2.78 | Bp. [° C.] (Table 2, components of PEACH): 171 °C; logP ([1]; Table 2, components of PEACH): 2.78 |
| CCCCCCCCCCC=CC#N [OZONIL] |  |  | 293 °C | 5.04 |  |
| CCCCCCCCCCO [ALKOHOL C10] |  |  | 231.1 °C | 3.79 |  |
| HERBYLPROPIONAT | 276.15 °C | 2.89 | 276.15 °C | 3.68 |  |
| CCCCCCCCCCCCCCCCCC=O [OCTADECANAL] | 250 °C | 1.83 |  |  |  |
| CCCCCC1CCCC(=O)O1 (stereo not drawn) [DECALACTON DELTA] |  |  |  |  | Bp. [° C.] (Table 2, components of PEACH): 267 °C; logP ([1]; Table 2, components of PEACH): 2.57 |
| CC(C)C1CC=C(CCC=O)CC1 (stereo not drawn) [3-[4-ISOPROPYLCYCLOHEXEN-1-YL]PROPANAL] | 258 °C | 4.8 |  |  |  |
| CCCCCCCCCCCC=O [ALDEHYD C12 LAURIN] |  |  | 249 °C | 4.75 |  |
| CC(=O)OC1CC2CC1C1CC=CC21 (stereo not drawn) [VERDYL ACETATE] | 260 °C | 2.36 |  |  |  |
| O=C1CCCCCCCCCCCC(=O)OCCO1 [ETHYLENBRASSYLAT] |  |  | 382 °C | 4.71 |  |
| CCc1ccc(CC(C)(C)C=O)cc1 [FLORALOZONE] |  |  |  |  | Bp. [° C.] [2]: 276.6 °C; logP [1, 2]: 3.94 |
